Results published in patent publication US7153813B2, “Substituted aryl ketones” (Bayer Aktiengesellschaft, priority 2002, dated 2006).
Like-named read-outs stand apart in the source and are kept apart here.

Key:
[1] = logP determination by HPLC (EEC Directive 79/831 Annex V.A8), reverse-phase column C 18; type: physicochemical; details: for chromatographic logP: reverse-phase C18 HPLC column, stated in the preparation example, read-out: Log P
Procedure: The logP values given in the tables were determined in accordance with EEC Directive 79/831 Annex V.A8 by HPLC (High Performance Liquid Chromatography) using a reverse-phase column (C 18). Temperature: 43° C. • (a) Mobile phases for the determination in the acidic range: 0.1% aqueous phosphoric acid, acetonitrile; linear gradient from 10% acetonitrile to 90% acetonitrile—corresponding measurement data are marked a) in Table 1. • (b) Mobile phases for the determination in the neutral range: 0.01 molar aqueous phosphate buffer solution, acetonitrile; linear gradient from 10% acetonitrile to 90% acetonitrile—the corresponding measurement data are marked b) in Table 1. The calibration was carried out using unbranched alkan-2-ones (having 3 to 16 carbon atoms) with known logP values (determination of the logP values by the retention times using linear interpolation between two successive alkanones).

weeds [2] = experiment: Pre-Emergence Test (Example A), damage to weeds; type: in vivo; details: soil sprayed 24 hours after sowing, rated after three weeks
Procedure: (§1) • Solvent: 5 parts by weight of acetone • Emulsifier: 1 part by weight of alkylaryl polyglycol ether
To produce a suitable preparation of active compound, 1 part by weight of active compound is mixed with the stated amount of solvent, the stated amount of emulsifier is added and the concentrate is diluted with water to the desired concentration.
Seeds of the test plants are sown in normal soil. After 24 hours, the soil is sprayed with the preparation of active compound such that the particular amount of active compound desired is applied per unit area. The concentration of active compound in the spray liquor is chosen such that the particular amount of active compound desired is applied in 1000 liters of water per hectare.
After three Weeks, the degree of damage to the plants is rated in % damage in comparison to the development of the untreated control. The figures denote: • 0%=no effect (like untreated control) • 100%=total destruction

weeds [3] = experiment: Post-Emergence Test (Example B), damage to weeds; type: in vivo; details: test plants of 5–15 cm sprayed, rated after three weeks
Procedure: as §1
To produce a suitable preparation of active compound, 1 part by weight of active compound is mixed with the stated amount of solvent, the stated of amount of emulsifier is added and the concentrate is diluted with water to the desired concentration.
Test plants of a height of 5–15 cm are sprayed with the preparation of active compound such that the particular amounts of active compound desired are applied per unit area. The concentration of the spray liquor is chosen such that the particular amounts of active compound desired are applied in 1000 l of water/Ha.
After three weeks, the degree of damage to the plants is rated in % damage in comparison to the development of the untreated control.
The figures denote: • 0%=no effect (like untreated control) • 100%=total destruction

[4] = HPLC, reverse-phase C 18, 43° C., acidic range: 0.1% aqueous phosphoric acid, acetonitrile, gradient 10% to 90% (marked a))

Row | SMILES | logP [1] | logP [1, 4] | chromatographic logP [1] | activity against weeds (degree of damage) (weeds [2]) | activity against weeds (degree of damage) (weeds [3])
1 | CCn1ncc(C(=O)c2ccc(C(F)(F)F)cc2CS(C)(=O)=O)c1OCc1ccccc1 [Example 11] | logP = 3.26^a) |  |  | strong activity | 
2 | Cn1ncc(C(=O)c2ccc(C(F)(F)F)cc2CS(C)(=O)=O)c1OCc1ccc(F)cc1 [Example 6] | logP = 3.02^a) |  |  | strong activity | 
3 | Cn1ncc(C(=O)c2ccc(C(F)(F)F)cc2CS(C)(=O)=O)c1OCc1ccc(Br)cc1 [Example 8] | logP = 3.41^a) |  |  | strong activity | 
4 | CCn1ncc(C(=O)c2ccc(C(F)(F)F)cc2CS(C)(=O)=O)c1OCc1ccccc1C [Example 19] | logP = 3.52^a) |  |  | strong activity | strong activity
5 | Cc1ccc(COc2c(C(=O)c3ccc(C(F)(F)F)cc3CS(C)(=O)=O)cnn2C)cc1 [Example 9] | logP = 3.26^a) |  |  | strong activity | 
6 | CCn1ncc(C(=O)c2ccc(C(F)(F)F)cc2CS(C)(=O)=O)c1OCc1cccc(F)c1 [Example 14] | logP = 3.30^a) |  |  | strong activity | 
7 | CCn1ncc(C(=O)c2ccc(C(F)(F)F)cc2CS(C)(=O)=O)c1OCC(=O)c1ccccc1 [Example 20] | logP = 3.01^a) |  |  | strong activity | strong activity
8 | CCn1ncc(C(=O)c2ccc(C(F)(F)F)cc2CS(C)(=O)=O)c1OCc1cccc(Cl)c1 [Example 15] | logP = 3.60^a) |  |  | strong activity | 
9 | CCn1ncc(C(=O)c2ccc(C(F)(F)F)cc2CS(C)(=O)=O)c1OCc1ccc(F)cc1 [Example 12] | logP = 3.30^a) |  |  | strong activity | 
10 | CCn1ncc(C(=O)c2ccc(C(F)(F)F)cc2CS(C)(=O)=O)c1OCc1ccc(Cl)cc1 [Example 10] | logP = 3.64^a) |  |  | strong activity | 
11 | CCn1ncc(C(=O)c2ccc(C(F)(F)F)cc2CS(C)(=O)=O)c1OS(=O)(=O)c1ccc(C)cc1 [Example 22] |  | logP = 3.39^a) |  | strong activity | 
12 | Cn1ncc(C(=O)c2ccc(C(F)(F)F)cc2CS(C)(=O)=O)c1OCc1ccc(Cl)cc1 [Example 7] | logP = 3.32^a) |  |  | strong activity | 
13 | CCn1ncc(C(=O)c2ccc(C(F)(F)F)cc2CS(C)(=O)=O)c1OCc1ccc(C)cc1 [Example 13] | logP = 3.57^a) |  |  | strong activity | 
14 | CCn1ncc(C(=O)c2ccc(C(F)(F)F)cc2CS(C)(=O)=O)c1OCc1ccccc1F [Example 17] | logP = 3.29^a) |  |  | strong activity | 
15 | Cn1ncc(C(=O)c2ccc(C(F)(F)F)cc2CS(C)(=O)=O)c1OCc1ccccc1 [Example 5] | logP = 2.94^a) |  |  | strong activity | strong activity
16 | Cn1ncc(C(=O)c2ccc(C(F)(F)F)cc2CS(C)(=O)=O)c1O [Example 4] |  | logP = 1.57^a) |  | strong activity | 
17 | CCn1ncc(C(=O)c2ccc(C(F)(F)F)cc2CS(C)(=O)=O)c1OCc1ccccc1Cl [Example 18] | logP = 3.56^a) |  |  | strong activity | strong activity
18 | CCn1ncc(C(=O)c2ccc(C(F)(F)F)cc2CS(C)(=O)=O)c1OC(=O)c1ccccc1 [Example 21] | logP = 3.07^a) |  |  | strong activity | 
19 | CCn1ncc(C(=O)c2ccc(C(F)(F)F)cc2CS(C)(=O)=O)c1O [Example 1, (1-ethyl-5-hydroxy-1H-pyrazol-4-yl)-(2-methylsulphonylmethyl-4-trifluoromethylphenyl)methanone] |  | logP = 1.88^a) | 1.88 | strong activity | strong activity
20 | CCn1ncc(C(=O)c2ccc(C(F)(F)F)cc2CS(C)(=O)=O)c1OCc1ccc(Br)cc1 [Example 2, [1-ethyl-5-(4-bromophenylmethoxy)-1H-pyrazol-4-yl]-(2-methylsulphonylmethyl-4-trifluoromethylphenyl)methanone] |  | logP = 3.76^a) | 3.76 | strong activity | strong activity
21 | CCn1ncc(C(=O)c2ccc(C(F)(F)F)cc2CS(C)(=O)=O)c1OCc1cccc(C)c1 [Example 16] | logP = 3.57^a) |  |  | strong activity | 

Further lines, with some results ahead:

Row | logP [1] | logP [1, 4] | chromatographic logP [1] | SMILES | activity against weeds (degree of damage) (weeds [2]) | activity against weeds (degree of damage) (weeds [3])
22 | logP = 2.86^a) |  |  | CC1(C)CCC(=O)C(C(=O)c2ccc(C(F)(F)F)cc2CS(C)(=O)=O)C1=O (centres unmarked) [Example 30] |  | 
23 | logP = 2.50^a) |  |  | CCn1ncc(C(=O)c2ccc(C(F)(F)F)cc2CS(C)(=O)=O)c1OS(C)(=O)=O [Example 23] | strong activity | strong activity
24 | logP = 2.42^a) |  |  | CS(=O)(=O)Cc1cc(C(F)(F)F)ccc1C(=O)C1=C(Cl)CCCC1=O [Example 33] |  | 
25 | logP = 3.01^a) |  |  | CCOC(=O)C(C)Oc1c(C(=O)c2ccc(C(F)(F)F)cc2CS(C)(=O)=O)cnn1CC (centres unmarked) [Example 26] |  | 
26 | logP = 2.44^a) |  |  | CCOC(=O)COc1c(C(=O)c2ccc(C(F)(F)F)cc2CS(C)(=O)=O)cnn1C [Example 27] |  | 
27 |  | logP = 3.36^a) |  | CCSCc1cc(C(F)(F)F)ccc1C(=O)c1cnn(CC)c1O [Example 32] |  | 
28 | logP = 2.72^a) |  |  | CCOC(=O)COc1c(C(=O)c2ccc(C(F)(F)F)cc2CS(C)(=O)=O)cnn1CC [Example 25] |  | 
29 | logP = 2.70^a) |  |  | CCOC(=O)C(C)Oc1c(C(=O)c2ccc(C(F)(F)F)cc2CS(C)(=O)=O)cnn1C (centres unmarked) [Example 28] |  | 
30 | logP = 2.59^a) |  |  | C#CCOc1c(C(=O)c2ccc(C(F)(F)F)cc2CS(C)(=O)=O)cnn1CC [Example 24] |  | 
31 | logP = 2.30^a) |  |  | C#CCOc1c(C(=O)c2ccc(C(F)(F)F)cc2CS(C)(=O)=O)cnn1C [Example 29] |  | 
